{"source": "patent US10822318B2", "about": "“Lactone-based probes and methods of use thereof” (REGENTS OF THE UNIVERSITY OF MINNESOTA, priority 2017, dated 2020)", "key": {"[1]": {"system": "S. pyogenes", "conditions": "mice infected with S. pyogenes; cited from earlier work"}, "[2]": {"system": "E. coli", "conditions": "cited from earlier work"}, "[3]": {"system": "S. pneumoniae IU1945 PBPs", "experiment": "Competition assays with Boc-FL for S. pneumoniae IU1945 PBPs", "assay_type": "cell-based", "conditions": "S. pneumoniae IU1945 cells", "experimental": "The protocol for SDS-PAGE gel preparation was previously described (Kocaoglu, O, et al. (2013) Curr Protoc Chem Biol 5, 239). Briefly, polyacrylamide gels were composed of 10% resolving gel (10.5 ml of 1.5 M Tris-HCl buffer pH 8.8, 10.5 ml of acrylamide:bis-acrylamide 29:1 (40% solution), 21 ml of H2O, 140 μl of 10% APS, 15 μl of tetramethylethylenediamine (TEMED)) and 4.5% stacking gel (2.5 ml of 0.5 M Tris-HCl buffer pH 6.8, 1.125 ml of acrylamide:bis-acrylamide 29:1 (40% solution), 6.375 ml of H2O, 30 μl of 10% APS, 10 μl of TEMED). Running parameters were 180 V, 400 mA, and 60 W for 1.5 h. Experiments to examine competition of acyl homoserine lactones or p-toluenesulfonic acid salts of the β-lactones with Boc-FL were performed with acrylamide:bis-acrylamide ratio of 37.5:1.\nCells from 1.5 ml of culture were harvested by centrifugation (16,100×g for 2 min at RT) and washed with 1 ml of PBS, pH 7.4. Cell pellets were resuspended in 50 μl of PBS containing 5, 10, and 20 μg/ml of β-lactone p-toluenesulfonic salts and incubated for 40 min at RT. Cells were pelleted and washed in 1 ml of PBS. Next, the cells were resuspended in 50 μl of PBS containing 5 μg/ml Boc-FL and incubated for 10 min at RT. Finally, the cells were resuspended in 100 μl PBS containing 1 or 10 mg/ml lysozyme and incubated for 30 min at 37° C. […]"}, "[4]": {"system": "S. pneumoniae cells", "experiment": "3D-SIM imaging of lactone probe labeled cells", "assay_type": "cell-based", "conditions": "wild-type and Δpbp1b strains, ≈41 cells examined", "experimental": "Cells from an overnight culture were diluted to OD620 0.02 in 2 ml of fresh BHI prewarmed to 37° C. and incubated at 37° C. in an atmosphere of 5% CO2. At OD620 0.2, 1.5 ml of culture was added to a microfuge tube and centrifuged at room temperature for 5 min at 16000×g. The supernatant was discarded, the pellet was resuspended in 1 ml room temperature PBS, and the culture was centrifuged a second time. The supernatant was discarded and the pellet was resuspended in either 50 μl of PBS with 5 μg mL^−1 7FL or 100 μl PBS with 5 μg mL^−1 8T. The cells were incubated for 20 min at room temperature in the dark. After incubation the cells were spun and washed with 1 ml of PBS (7FL) or 1 ml of PBS containing 50 mM glucose (8T). The cells were spun a second time and washed with 200 μl of PBS (7FL) or 200 μl of PBS with 50 mM glucose (8T), and finally spun a third time and resuspended in 100 μl of cold (4° C.) GTE buffer (50 mM glucose, 20 mM Tris pH 7.5, 1 mM EDTA). The cells were spun down at 4° C., the supernatant was discarded, and the pellet was resuspended in 15 μl of Vectashield Hardest Antifade (Vector Labs) and kept on ice. 1.2 μl of cells in antifade was pipetted onto a clean coverslip, applied to a slide, and imaged via 3D-SIM. 3D-SIM was performed using the OMX 3D-SIM super-resolution system located in the Indiana University Bloomington Light Microscopy Imaging Center (www.indiana.edu/˜lmic/microscopes/index.html#OMX). The system used is equipped with four Photometrics Cascade II EMCCD cameras that allow simultaneous imaging of up to four colors, and is controlled by DV-OMX software, with image processing by Applied Precision softWoRx 6.0.0 software. Exposure times and % T settings for DAPI, Alexa 488, and Alexa 568 images were 5 ms and 100% for all three channels.\nFor pre-treatment with methicillin followed by lactone probe labeling, duplicate 2 ml cultures of each strain were created and incubated as described above. At OD620 0.12, methicillin was added to a final concentration of 0.1 μg mL^−1 to one culture for each strain, and the strains were placed back in the incubator. After 20 min, all cultures were harvested, labeled, and imaged as described above.\nFor labeling of cells with both lactone probes, the following changes were made: After a 20 min incubation with 7FL, the cells were spun down and washed once in 1 ml of PBS. The cells were spun again and resuspended in 100 μl of 8T in PBS at 5 μg mL^−1. The cells were incubated for 20 min at room temperature in the dark, and then washed and imaged as described above for 8T labeling."}, "[5]": {"biological_target": "T1, PBP2x (Streptococcus pneumoniae, UniProt P59676)", "T1 construct": "endogenous in cells; host or cells: S. pneumoniae IU1945 and E193 (Δpbp1b)", "T1 sequence (P59676 whole entry)": "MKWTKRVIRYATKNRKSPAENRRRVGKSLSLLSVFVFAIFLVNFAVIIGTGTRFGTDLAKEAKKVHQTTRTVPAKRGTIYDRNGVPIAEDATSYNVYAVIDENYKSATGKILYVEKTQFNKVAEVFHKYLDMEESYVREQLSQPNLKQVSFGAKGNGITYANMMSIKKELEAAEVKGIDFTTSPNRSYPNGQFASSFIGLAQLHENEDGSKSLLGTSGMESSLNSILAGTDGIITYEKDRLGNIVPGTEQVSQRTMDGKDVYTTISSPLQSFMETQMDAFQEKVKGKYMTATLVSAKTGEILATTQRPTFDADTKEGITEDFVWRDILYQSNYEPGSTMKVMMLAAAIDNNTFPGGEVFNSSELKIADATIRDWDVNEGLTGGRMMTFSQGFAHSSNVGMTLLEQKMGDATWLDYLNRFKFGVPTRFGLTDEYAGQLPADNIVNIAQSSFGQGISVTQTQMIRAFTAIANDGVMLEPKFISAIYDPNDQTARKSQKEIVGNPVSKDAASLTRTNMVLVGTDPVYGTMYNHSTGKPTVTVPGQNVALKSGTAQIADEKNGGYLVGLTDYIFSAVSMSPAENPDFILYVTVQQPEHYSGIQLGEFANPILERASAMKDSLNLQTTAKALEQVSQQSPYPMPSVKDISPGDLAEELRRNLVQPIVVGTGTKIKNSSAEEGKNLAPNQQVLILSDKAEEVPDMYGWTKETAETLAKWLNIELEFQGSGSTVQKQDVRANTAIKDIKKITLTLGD", "experiment": "Methicillin pre-treatment controls, gel-based analysis", "assay_type": "cell-based, S. pneumoniae", "conditions": "7FL labeling", "experimental": "Cells from 1.5 ml of S. pneumoniae IU1945 and E193 cultures at exponential phase (OD620˜0.2) were harvested by centrifugation (16,100×g for 2 min at RT) and washed with 1 ml of PBS, pH 7.4. Cell pellets were resuspended in 50 μl of PBS containing 0.1 μg/ml of methicillin and incubated for 30 min at RT. Cells were pelleted and washed in 1 ml of PBS. Next, the cells were resuspended in 50 μl of PBS containing 1 or 5 μg/ml of lac-L-Phe-FL or 5 μg/ml Boc-FL (as control) and incubated for 20 min at RT (10 min at RT for Boc-FL). Finally, the cells were resuspended in 100 μl PBS containing 1 or 10 mg/ml lysozyme and incubated for 30 min at 37° C. Cells were lysed and sample preparation for SDS-PAGE gel-based analysis was performed as described."}, "[6]": {"system": "PBP1b", "conditions": "cited from earlier work"}, "[7]": {"system": "PBP3", "conditions": "cited from earlier work"}}, "data": [{"molecule": "O=C(N[C@@H]1C(=O)O[C@@H]1Cc1ccc([N+](=O)[O-])cc1)c1cccc(O)c1O", "note": "[Obafluorin, obafluorin]", "values": [{"measurement": "protection of infected mice", "setting": "[1]", "value": "provides protection"}, {"measurement": "effect on cell morphology", "setting": "[2]", "value": "causes cell elongation"}]}, {"molecule": "CC(=O)N[C@@H]1C(=O)O[C@@H]1C", "note": "[SQ 26,517]", "values": [{"measurement": "PBP inhibition (competition with Boc-FL)", "setting": "[3]", "value": "very weak inhibitor of PBP2a"}]}, {"molecule": "COc1cccc(OC)c1C(=O)N[C@@H]1C(=O)N2[C@@H]1SC(C)(C)[C@@H]2C(=O)O", "note": "[methicillin, reference compound]", "values": [{"measurement": "methicillin-treated late division cells displaying empty septal rings", "setting": "[4]; labeled with 7FL", "value": "> 98", "unit": "%"}, {"measurement": "methicillin-treated late divisional cells showing empty septal rings", "setting": "[4]; labeled with 8T", "value": "> 98", "unit": "%"}, {"measurement": "PBP2x labeling following methicillin treatment", "setting": "[5]", "value": "dramatically decreased"}]}, {"molecule": "[^3H]benzylpenicillin", "values": [{"measurement": "deacylation rate", "setting": "[6]", "value": "5.6e-05", "unit": "s⁻¹"}, {"measurement": "deacylation rate", "setting": "[7]", "value": "5.7e-05", "unit": "s⁻¹"}]}]}
